# Experimental data taken from ChEMBL document CHEMBL1131223, “Potent antagonists of the SH2 domain of Grb2: optimization of the X+1 position of 3-amino-Z-Tyr(PO3H2)-X+1-Asn-NH2” (J Med Chem, 1998).
# Assays:
# [1] = biological target: T1, Growth factor receptor-bound protein 2 (Homo sapiens, UniProt P62993); assay: Inhibition of binding to Grb2 SH2 domain
# [2] = biological target: T1, Growth factor receptor-bound protein 2; assay: Inhibition of binding to Growth factor receptor bound protein 2 (Grb2) SH2 domain
# [3] = Inhibition of binding to N-terminal p85 SH2 domain
# [4] = biological target: T2, Tyrosine-protein phosphatase non-receptor type 11 (Homo sapiens, UniProt Q06124); assay: Inhibition of interaction between the activated tyrosine kinase receptors and Shp2 SH2 domains in the Ras signal transduction pathway.
# T2 sequence (Q06124 whole entry): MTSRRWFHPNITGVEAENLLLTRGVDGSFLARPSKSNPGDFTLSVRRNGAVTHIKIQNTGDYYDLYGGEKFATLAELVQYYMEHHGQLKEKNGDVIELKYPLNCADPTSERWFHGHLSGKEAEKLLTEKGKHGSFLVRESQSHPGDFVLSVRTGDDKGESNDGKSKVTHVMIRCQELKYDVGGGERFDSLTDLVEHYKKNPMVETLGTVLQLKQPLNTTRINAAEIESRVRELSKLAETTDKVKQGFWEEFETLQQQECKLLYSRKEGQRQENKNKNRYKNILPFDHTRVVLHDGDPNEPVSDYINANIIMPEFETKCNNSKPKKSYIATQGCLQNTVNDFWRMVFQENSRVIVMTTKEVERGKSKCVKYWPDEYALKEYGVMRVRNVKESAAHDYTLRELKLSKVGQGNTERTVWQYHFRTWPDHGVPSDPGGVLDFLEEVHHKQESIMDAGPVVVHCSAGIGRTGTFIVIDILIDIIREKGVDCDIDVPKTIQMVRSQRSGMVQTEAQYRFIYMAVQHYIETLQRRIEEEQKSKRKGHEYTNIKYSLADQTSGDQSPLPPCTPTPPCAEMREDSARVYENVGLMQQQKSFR
# [5] = biological target: Tyrosine-protein kinase Lck (Homo sapiens, UniProt P06239); assay: Inhibition of binding to p56 Lck tyrosine kinase SH2 domain
# Tyrosine-protein kinase Lck, sequence (P06239 whole entry, the tested form may be a part): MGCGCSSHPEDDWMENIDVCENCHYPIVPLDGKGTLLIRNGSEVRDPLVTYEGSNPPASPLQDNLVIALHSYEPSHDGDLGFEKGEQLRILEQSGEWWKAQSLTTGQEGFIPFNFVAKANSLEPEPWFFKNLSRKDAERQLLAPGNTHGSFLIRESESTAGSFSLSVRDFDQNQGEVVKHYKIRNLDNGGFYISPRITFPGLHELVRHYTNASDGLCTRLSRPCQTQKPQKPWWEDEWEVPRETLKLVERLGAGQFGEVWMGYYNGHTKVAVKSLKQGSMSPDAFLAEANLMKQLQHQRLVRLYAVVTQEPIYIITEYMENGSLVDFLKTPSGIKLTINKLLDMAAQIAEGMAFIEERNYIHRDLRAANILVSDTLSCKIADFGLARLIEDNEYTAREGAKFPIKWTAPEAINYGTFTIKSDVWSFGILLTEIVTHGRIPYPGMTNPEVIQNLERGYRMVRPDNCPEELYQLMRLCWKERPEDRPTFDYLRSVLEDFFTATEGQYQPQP
Structure (SMILES),IC50 [1],IC50 [2],IC50 [3],IC50 [4],IC50 [5]
CC(C)(NC(=O)[C@@H](N)Cc1ccc(OP(=O)(O)O)c(N)c1)C(=O)N[C@@H](CC(N)=O)C(N)=O,206 nM,–,–,–,–
NC(=O)C[C@H](NC(=O)C1(NC(=O)[C@@H](N)Cc2ccc(OP(=O)(O)O)c(N)c2)CCCCC1)C(N)=O,1 nM,4 nM,970 nM,> 5000 nM,6.24 nM

# The next lines start with results.
IC50 [1],Structure (SMILES),IC50 [2],IC50 [3],IC50 [4],IC50 [5]
23 nM,NC(=O)C[C@H](NC(=O)C1(NC(=O)[C@H](Cc2ccc(OP(=O)(O)O)cc2)NC(=O)OCc2cccc(N)c2)CCCC1)C(N)=O,–,–,–,–
124 nM,NC(=O)C[C@H](NC(=O)C1(NC(=O)[C@H](Cc2ccc(OP(=O)(O)O)cc2)NC(=O)OCc2cccc(N)c2)CC1)C(N)=O,–,–,–,–
140 nM,NC(=O)C[C@H](NC(=O)C1(NC(=O)[C@H](Cc2ccc(OP(=O)(O)O)cc2)NC(=O)OCc2cccc(N)c2)Cc2ccccc2C1)C(N)=O,–,–,–,–
